Several values for one entry are separate records, joined by “and”; a condition that tells them apart may be missing. Equal entries are not always repeated. Structures can show the parent of a compound that is named as a salt. Where two headings read alike, the source gives them in different places.
Target: DNMT1 (Homo sapiens, UniProt P26358)
Experiment: DNMT1 biochemical activity, breaklight assay and/or SPA assay
Procedure: DNMT1 breaklight in vitro assays were conducted in a total volume of 50 μl in a standard 384 well format, using black non-binding surface microplates (Corning 3575). […] Negative control wells used 5 μl of DNMT1 and 5 μl of oligonucleotide but 0 μM SAM. All reagents were made up in 1× assay buffer (20 mM Tris pH 6.8, 25 mM NaCl, 0.5 mM MgCl2, 0.01% Triton X100 and 1 mM DTT). The reaction was incubated at 26° C. for 45 min and then stopped with the addition of 40 μl detection reagent. Detection reagent, made up in 1× Gla assay buffer (20 mM Tris pH 8.0, 80 mM NaCl, 0.75 mM MgCl2, 0.01% Triton X100 and 1 mM DTT) has a final concentration of 100 μM SAH (Sigma #A9384) and 0.0008 units/μl Gla1 restriction endonuclease (Sibenzyme #E494). Following addition of the detection reagent the plate was incubated in the dark at room temperature for 5 hr. Fluorescence intensity was then measured on the PHERAstar FS (BMG Labtech) at Ex 485 nm and Em 520 nm, with a gain of 400 and an integration time of 100 ms.
Biochemical activity of DNMT1 analyzed using SPA technology. Plates (Griener 784075) were pre-stamped with 100 nL/well of compound (11-point, 3-fold serial dilution). […] Low control wells contained 5 μL of buffer instead of enzyme. Following a 40 minute incubation, the reaction was quenched upon the addition of 10 μL of stop mixture containing 1 mM SAM (Sigma A7007) and 2 mg/mL PEI beads (Perkin Elmer RPNQ0098). Plates were sealed, centrifuged for 1 min and then read on a Viewlux (Perkin Elmer) using the 613 nm emission filter/300 s read time following a 30 minute dark adapt. Assay conditions prior to quench consisted of 40 nM DNMT1 (601-1600, produced internally), 100 nM 3H-SAM (American Radiolabeled Chemicals ART 0288), 900 nM SAM (New England BioLabs B9003S) and 200 nM hemi methylated DNA oligonucleotide (synthesized at Integrated DNA Technologies, 5′-[…]-3′) in 50 mM HEPES (pH 8.0), 2 mM MgCl2, 1 mM DTT, 0.01% NP-40 and 0.01% BSA.
Comments • 1. […] Where a field is empty, the compound was not tested in that assay.

[1] = binned activity in either the breaklight or the SPA assay, read-out: DNMT1 BioChemical (pIC50 category) (converted)
[2] = breaklight assay and/or SPA assay, repeated experimental runs, read-out: average pIC50 against DNMT1 (converted)
[3] = binned activity in either the breaklight or the SPA assay

DNMT1, sequence (P26358 whole entry, looked up): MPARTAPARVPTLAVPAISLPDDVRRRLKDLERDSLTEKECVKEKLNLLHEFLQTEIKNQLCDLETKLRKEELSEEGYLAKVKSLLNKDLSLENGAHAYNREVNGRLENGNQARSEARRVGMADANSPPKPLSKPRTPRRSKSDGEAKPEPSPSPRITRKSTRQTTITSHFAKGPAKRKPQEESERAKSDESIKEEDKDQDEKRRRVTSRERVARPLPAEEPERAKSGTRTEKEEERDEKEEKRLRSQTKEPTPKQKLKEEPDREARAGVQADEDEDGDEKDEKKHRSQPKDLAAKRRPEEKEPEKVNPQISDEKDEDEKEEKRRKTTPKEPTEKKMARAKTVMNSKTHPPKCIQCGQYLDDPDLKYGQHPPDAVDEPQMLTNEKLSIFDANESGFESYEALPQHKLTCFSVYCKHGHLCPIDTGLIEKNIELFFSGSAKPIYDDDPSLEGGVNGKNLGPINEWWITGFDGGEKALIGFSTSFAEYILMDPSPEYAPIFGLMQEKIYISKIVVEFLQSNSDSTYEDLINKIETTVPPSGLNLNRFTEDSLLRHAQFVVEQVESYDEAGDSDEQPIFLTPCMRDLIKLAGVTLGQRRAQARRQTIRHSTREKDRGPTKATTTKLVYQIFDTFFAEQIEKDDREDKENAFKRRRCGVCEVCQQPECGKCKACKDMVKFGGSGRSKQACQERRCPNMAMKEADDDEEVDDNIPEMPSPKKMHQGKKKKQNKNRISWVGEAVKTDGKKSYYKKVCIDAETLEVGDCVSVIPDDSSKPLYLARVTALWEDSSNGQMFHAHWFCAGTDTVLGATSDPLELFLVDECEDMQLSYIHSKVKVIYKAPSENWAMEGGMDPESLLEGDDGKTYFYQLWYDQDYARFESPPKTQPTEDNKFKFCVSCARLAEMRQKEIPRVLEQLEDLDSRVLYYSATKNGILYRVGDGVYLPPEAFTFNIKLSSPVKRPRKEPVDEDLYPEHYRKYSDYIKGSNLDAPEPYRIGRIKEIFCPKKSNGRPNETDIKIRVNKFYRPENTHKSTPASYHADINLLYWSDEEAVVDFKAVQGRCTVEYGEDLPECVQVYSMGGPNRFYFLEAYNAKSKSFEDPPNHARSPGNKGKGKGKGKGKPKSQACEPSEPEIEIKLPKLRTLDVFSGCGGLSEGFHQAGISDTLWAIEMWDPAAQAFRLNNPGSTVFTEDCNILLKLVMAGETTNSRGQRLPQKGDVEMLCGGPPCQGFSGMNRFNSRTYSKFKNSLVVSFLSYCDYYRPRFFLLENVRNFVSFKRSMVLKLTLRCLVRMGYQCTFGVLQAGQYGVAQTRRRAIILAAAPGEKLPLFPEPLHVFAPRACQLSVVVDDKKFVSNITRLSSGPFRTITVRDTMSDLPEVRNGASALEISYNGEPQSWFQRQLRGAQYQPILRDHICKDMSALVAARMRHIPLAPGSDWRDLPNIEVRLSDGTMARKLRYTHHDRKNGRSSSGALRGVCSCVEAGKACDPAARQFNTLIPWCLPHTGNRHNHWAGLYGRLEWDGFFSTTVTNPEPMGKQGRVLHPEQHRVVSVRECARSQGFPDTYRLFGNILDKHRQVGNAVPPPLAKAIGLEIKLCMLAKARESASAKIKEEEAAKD

Row | Structure (SMILES) | IC50 [1] [µM] | DNMT1 BioChemical (pIC50 category) [3] | further results
1 | CCc1c(C#N)c(SC(C(N)=O)c2ccccc2)nc(N2CCN(C(=O)c3ccccc3)CC2)c1C#N (stereo not drawn) [Example 131, 2-((6-(4-Benzoylpiperazin-1-yl)-3,5-dicyano-4-ethylpyridin-2-yl)thio)-2-phenylacetamide] | 0.316 to 1 |  | IC50 [2]: 0.316 to 1 µM
2 | CCc1c(C#N)c(SC(C(N)=O)c2ccccc2)nc(N2CCCN(CC(O)CO)CC2)c1C#N (stereo not drawn) [Example 678, 2-((3,5-dicyano-6-(4-(2,3-dihydroxypropyl)-1,4-diazepan-1-yl)-4-ethylpyridin-2-yl)thio)-2-phenylacetamide] |  | D (Category D: ≥6.5) | 
3 | CCc1c(C#N)c(SC(C(N)=O)c2ccccc2)nc(N2CCN(CCN3CCCC3)CC2)c1C#N (stereo not drawn) [Example 304, 2-((3,5-Dicyano-4-ethyl-6-(4-(2-(pyrrolidin-1-yl)ethyl)piperazin-1-yl)pyridin-2-yl)thio)-2-phenylacetamide] | 0.316 to 1 |  | 
4 | CCc1c(C#N)c(SC(C(N)=O)c2ccccc2)nc(N2CC[C@@]3(CCCN3S(C)(=O)=O)[C@@H](O)C2)c1C#N (stereo partly drawn) [Example 132, 2-((3,5-Dicyano-4-ethyl-6-((5S,6S)-6-hydroxy-1-(methylsulfonyl)-1,8-diazaspiro[4.5]decan-8-yl)pyridin-2-yl)thio)-2-phenylacetamide] | 0.316 to 1 |  | IC50 [2]: 0.316 to 1 µM
5 | CCc1c(C#N)c(S[C@@H](C(N)=O)c2ccccc2)nc(N2CC[C@@H](N)[C@@H](O)C2)c1C#N [Example 514, (R)-2-((6-((3S,4R)-4-amino-3-hydroxypiperidin-1-yl)-3,5-dicyano-4-ethylpyridin-2-yl)thio)-2-phenylacetamide, Trifluoroacetic acid salt] |  |  | IC50 (DNMT1 BioChemical (pIC50 category), binned activity in either the breaklight or the SPA assay): < 0.316 µM
6 | CCc1c(C#N)c(SC(C(N)=O)c2ccccc2)nc(N2CCC(NCC3(C)CC3)CC2)c1C#N (stereo not drawn) [Example 473, 2-((3,5-dicyano-4-ethyl-6-(4-(((1-methylcyclopropyl)methyl)amino)piperidin-1-yl)pyridin-2-yl)thio)-2-phenylacetamide] |  | D (Category D: ≥6.5) | 
7 | CCc1c(C#N)c(SC(C(N)=O)c2ccccc2)nc(N2CCC(C3CCN(CCO)CC3)CC2)c1C#N (stereo not drawn) [Example 60, 2-((3,5-dicyano-4-ethyl-6-(1′-(2-hydroxyethyl)-[4,4′-bipiperidin]-1-yl)pyridin-2-yl)thio)-2-phenylacetamide] |  | D (Category D: ≥6.5) | 
8 | CCc1c(C#N)c(SCc2ccc(N(C)S(C)(=O)=O)cc2)nc(N2CC[C@@H](CNC(=O)CN)C2)c1C#N [Example 672, (S)-2-amino-N-((1-(3,5-dicyano-4-ethyl-6-((4-(N-methylmethylsulfonamido)benzyl)thio)pyridin-2-yl)pyrrolidin-3-yl)methyl)acetamide] |  | D (Category D: ≥6.5) | 
9 | CCc1c(C#N)c(S[C@@H](C(N)=O)c2ccccc2)nc(N(C)[C@@H]2CCOC2)c1C#N [Example 501, (R)-2-(3,5-dicyano-4-ethyl-6-(methyl((R)-tetrahydrofuran-3-yl)amino)pyridin-2-ylthio)-2-phenylacetamide] |  | D (Category D: ≥6.5) | 
10 | N#Cc1c(SC(C(N)=O)c2ccccc2)nc(N2CCCN(CCO)CC2)c(C#N)c1CC(F)(F)F (stereo not drawn) [Example 113, 2-({3,5-Dicyano-6-[4-(2-hydroxyethyl)-1,4-diazepan-1-yl]-4-(2,2,2-trifluoroethyl)pyridin-2-yl}sulfanyl)-2-phenylacetamide] | 0.316 to 1 |  | 
11 | COc1c(C#N)c(SC(C(N)=O)c2ccccc2)nc(N2CC[C@H](O)C2)c1C#N (stereo partly drawn) [Example 696, 2-((3,5-dicyano-6-((S)-3-hydroxypyrrolidin-1-yl)-4-methoxypyridin-2-yl)thio)-2-phenylacetamide] |  | D (Category D: ≥6.5) | 
12 | CCc1c(C#N)c(S[C@H](C(N)=O)c2ccccc2)nc(N2CCC(C)(N)CC2)c1C#N (single isomer, unassigned) [Example 617, 2-((6-(4-amino-4-methylpiperidin-1-yl)-3,5-dicyano-4-ethylpyridin-2-yl)thio)-2-phenylacetamide] | 1 to 31.6 |  | IC50 [2]: ≥ 1 µM and 2.51 µM

Source: US10975056B2 (GlaxoSmithKline Intellectual Property Development Limited, priority 2016, dated 2021)
